Like-named read-outs stand apart in the source and are kept apart here. Numbered stars: 1 amine (or outer) side, 2 acyl side, 3 side chain; on linkers, the order of the positions; unused ones are H or OH. Bridge positions count the residues as written; N and C are the ends. Square brackets hold non-standard residues; d marks the D form. Peptide text beside a SMILES is read from it. * marks the point of attachment. C20 diacid = O=C(O)CCCCCCCCCCCCCCCCCCC(=O)*; γGlu = O=C(O)[C@H](CCC(=O)[*:2])N[*:1]; NMeI = CC[C@H](C)[C@H](NC)C(=O)O; Sar = CNCC(=O)O
What was measured:
[1] = target: T1, human calcitonin receptor (hCTR2) (Homo sapiens, UniProt P30988); assay: hCTR2 assay: induction of cAMP (AlphaScreen cAMP Assay kit) in COS7 cells expressing hCTR2; format: cell-based; conditions: cAMP induction in COS7 cells expressing hCTR2; average of a minimum of 3 determinations; read-out: hCTR2 EC50
T1 construct: expressed in transfected cells
T1 sequence (P30988 25-474): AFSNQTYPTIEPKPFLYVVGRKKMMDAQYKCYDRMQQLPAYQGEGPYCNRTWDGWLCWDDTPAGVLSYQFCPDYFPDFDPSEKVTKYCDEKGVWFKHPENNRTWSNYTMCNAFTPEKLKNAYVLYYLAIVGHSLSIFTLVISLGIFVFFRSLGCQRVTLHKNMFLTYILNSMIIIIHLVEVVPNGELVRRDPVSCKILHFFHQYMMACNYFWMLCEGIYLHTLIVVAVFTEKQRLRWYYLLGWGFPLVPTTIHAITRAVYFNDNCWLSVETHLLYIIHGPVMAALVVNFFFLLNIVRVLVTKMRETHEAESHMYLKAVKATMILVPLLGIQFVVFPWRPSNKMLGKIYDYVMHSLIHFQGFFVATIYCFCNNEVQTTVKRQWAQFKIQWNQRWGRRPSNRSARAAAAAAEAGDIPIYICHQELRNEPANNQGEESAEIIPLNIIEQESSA
In short: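 Cells were seeded one day ahead, washed, then exposed to rising peptide concentrations for 15 min at 37° C in the presence of 100 µM IBMX. After lysis for 10 min at room temperature, cAMP was quantified by AlphaScreen and EC50 values derived by 4PL fitting.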

[2] = target: T2, human amylin receptor 3 (hAMYR3) consisting of hCTR2 co-expressed with human Receptor Activity Modifying Protein 3 (hRAMP3) (Homo sapiens, UniProt O60896+P30988); assay: hAMYR3 assay: induction of cAMP (AlphaScreen cAMP Assay kit) in COS7 cells expressing hAMYR3; format: cell-based
T2 construct: expressed in transfected cells
T2 sequence (P30988 25-474): T1 sequence (P30988 25-474)
T2 sequence (O60896 24-148 partner): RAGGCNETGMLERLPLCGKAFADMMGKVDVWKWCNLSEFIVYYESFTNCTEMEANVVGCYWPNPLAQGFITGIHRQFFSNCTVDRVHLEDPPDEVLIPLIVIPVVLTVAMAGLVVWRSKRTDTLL
In short: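 cAMP accumulation read by AlphaScreen in lysates of RAMP-naive COS7 cells stably transfected with hCTR2 plus hRAMP3. Cells exposed to peptide dilutions for 15 min, 37° C, with 100 µM IBMX; 4PL fitting gave EC50 and efficacy relative to pramlintide.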

[3] = Solubility assessment (turbidity absorbance at 325 nm); format: physicochemical; conditions: stock 2 mg/ml diluted 1:1, ambient temperature (typically 25°C), n=1; for Solubility, Acetate buffer pH 4: 100 mM acetate buffer pH 4.0; for Solubility, Acetate buffer pH 5: 100 mM acetate buffer pH 5.0; for Solubility, Histidine buffer pH 6: 100 mM histidine buffer pH 6.0; for Solubility, Histidine buffer pH 7: 100 mM histidine buffer pH 7.0; for Solubility, Phosphate buffer pH 6: 100 mM phosphate buffer pH 6.0; for Solubility, Phosphate buffer pH 7: 100 mM phosphate buffer pH 7.0; for Solubility, Phosphate buffer pH 7.5: 100 mM phosphate buffer pH7.5
In short: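 Turbidimetric screen across pH 4.0–7.5 in 100 mM acetate, histidine and phosphate buffers. A 2 mg/ml peptide stock (pH 2.5) was diluted 1:1 into each, then A325 measured at ambient temperature; values ≤ 0.02 AU denoted solubility of 1 mg/ml or more.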

Row | EC50 ([2]; cAMP induction in COS7 cells expressing hAMYR3, average of a minimum of 3 determinations, read-out: hAMY R3 EC50) [nM] | Compound | EC50 [1] [nM] | Solubility, Acetate buffer pH 4 [3] | Solubility, Acetate buffer pH 5 [3] | Solubility, Histidine buffer pH 6 [3] | Solubility, Histidine buffer pH 7 [3] | Solubility, Phosphate buffer pH 6 [3] | Solubility, Phosphate buffer pH 7 [3] | Solubility, Phosphate buffer pH 7.5 [3] | EC50 [2] [nM]
1 | 0.17 | CC[C@H](C)[C@@H](C(=O)N[C@@H](CC(C)C)C(=O)N1CCC[C@H]1C(=O)N1CCC[C@H]1C(=O)N[C@H](C(=O)N[C@@H](CC(N)=O)C(=O)N[C@H](C(=O)NCC(=O)N[C@@H](CO)C(=O)N[C@@H](CC(N)=O)C(=O)N[C@H](C(=O)N1CCC[C@H]1C(N)=O)[C@@H](C)O)C(C)C)[C@@H](C)O)N(C)C(=O)CN(C)C(=O)[C@H](Cc1ccccc1)NC(=O)[C@H](CC(N)=O)NC(=O)[C@H](CC(N)=O)NC(=O)[C@H](CO)NC(=O)[C@H](CO)NC(=O)[C@H](Cc1c[nH]cn1)NC(=O)[C@H](Cc1c[nH]cn1)NC(=O)[C@H](CC(C)C)NC(=O)[C@H](Cc1ccccc1)NC(=O)[C@H](CCC(=O)O)NC(=O)[C@H](C)NC(=O)[C@H](CC(C)C)NC(=O)[C@H](CCCNC(=N)N)NC(=O)[C@H](CCC(N)=O)NC(=O)[C@@H](NC(=O)[C@H](C)NC(=O)[C@@H]1CSSC[C@H](NC(=O)[C@H](CCCNC(=N)N)NC(=O)CC[C@H](NC(=O)CCCCCCCCCCCCCCCCCCC(=O)O)C(=O)O)C(=O)N[C@@H](CC(N)=O)C(=O)N[C@@H]([C@@H](C)O)C(=O)N[C@@H](C)C(=O)N[C@@H]([C@@H](C)O)C(=O)N1)[C@@H](C)O [Compound 176, [19CD]-isoGlu-RC()NTATC()ATQRLAEFLHHSSNNF-Gly(Me)-Ile(Me)-LPPTNVGSNTP-NH2] ({C20 diacid-γGlu}-RCNTATCATQRLAEFLHHSSNNF[Sar][NMeI]LPPTNVGSNTP-NH2; disulfide 2-7) | 0.12 | SS (SS indicates solubility ≥ 1mg/ml) | SS (SS indicates solubility ≥ 1mg/ml) | SS (SS indicates solubility ≥ 1mg/ml) | SS (SS indicates solubility ≥ 1mg/ml) | SS (SS indicates solubility ≥ 1mg/ml) | SS (SS indicates solubility ≥ 1mg/ml) | SS (SS indicates solubility ≥ 1mg/ml) | 
2 |  | CC[C@H](C)[C@H](NC(=O)[C@@H]1CCCN1C(=O)CNC(=O)[C@H](Cc1ccccc1)NC(=O)[C@H](CC(N)=O)NC(=O)[C@H](CC(N)=O)NC(=O)[C@H](CO)NC(=O)[C@H](CO)NC(=O)[C@H](Cc1c[nH]cn1)NC(=O)[C@H](Cc1c[nH]cn1)NC(=O)[C@H](CC(C)C)NC(=O)[C@H](Cc1ccccc1)NC(=O)[C@H](CCC(=O)O)NC(=O)[C@H](C)NC(=O)[C@H](CC(C)C)NC(=O)[C@H](CCCNC(=N)N)NC(=O)[C@H](CCC(N)=O)NC(=O)[C@@H](NC(=O)[C@H](C)NC(=O)[C@@H]1CSSC[C@H](NC(=O)[C@H](CCCNC(=N)N)NC(=O)CC[C@H](NC(=O)CCCCCCCCCCCCCCCCCCC(=O)O)C(=O)O)C(=O)N[C@@H](CC(N)=O)C(=O)N[C@@H]([C@@H](C)O)C(=O)N[C@@H](C)C(=O)N[C@@H]([C@@H](C)O)C(=O)N1)[C@@H](C)O)C(=O)N[C@@H](CC(C)C)C(=O)N1CCC[C@H]1C(=O)N1CCC[C@H]1C(=O)N[C@H](C(=O)N[C@@H](CC(N)=O)C(=O)N[C@H](C(=O)NCC(=O)N[C@@H](CO)C(=O)N[C@@H](CC(N)=O)C(=O)N[C@H](C(=O)N1CCC[C@H]1C(N)=O)[C@@H](C)O)C(C)C)[C@@H](C)O [NN96, N-α-[(S)-4-carboxy-4-(19-carboxynonadecanoylamino)butyryl]-[Arg1,Glu14,His17,Pro37]-pramlintide, reference compound] ({C20 diacid-γGlu}-RCNTATCATQRLAEFLHHSSNNFGPILPPTNVGSNTP-NH2; disulfide 2-7) | 0.089 | SS (SS indicates solubility ≥ 1mg/ml) | SS (SS indicates solubility ≥ 1mg/ml) | SS (SS indicates solubility ≥ 1mg/ml) | SS (SS indicates solubility ≥ 1mg/ml) | SS (SS indicates solubility ≥ 1mg/ml) | SS (SS indicates solubility ≥ 1mg/ml) | SS (SS indicates solubility ≥ 1mg/ml) | 0.15
